Measurements: patent US6054435A, “6-O-substituted macrolides having antibacterial activity” (priority 1999, dated 2000)
In brackets after ≈: the same amount, converted by molar mass.

Legend:
Assay in all cases: in vitro antibacterial activity (MIC), agar dilution
Type in all cases: cell-based
Candida albicans CCH 442 = conditions: organism code TT; BHI agar, 35-37° C., 20 to 24 hours; unit assumed
Summary of the method: (§1)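 BHI agar incorporation method; twelve compound concentrations. Streptococcus and other slow growers inoculated at 1:10, other strains at 1:100. Visual MIC read-out versus growth control.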

[1] = tested on: Enterococcus faecium ATCC 8043; conditions: organism code II; BHI agar, 35-37° C., 20 to 24 hours; unit assumed
Summary of the method: as §1

Escherichia coli DC-2 = conditions: organism code SS; BHI agar, 35-37° C., 20 to 24 hours; unit assumed
Summary of the method: as §1

Escherichia coli JUHL = conditions: organism code QQ; BHI agar, 35-37° C., 20 to 24 hours; unit assumed
Summary of the method: as §1

Escherichia coli SS = conditions: organism code RR; BHI agar, 35-37° C., 20 to 24 hours; unit assumed
Summary of the method: as §1

[2] = tested on: Haemophilis Influenzae DILL AMP R; conditions: organism code WW; BHI agar, 35-37° C., 20 to 24 hours; unit assumed
Summary of the method: as §1

[3] = tested on: Micrococcus luteus ATCC 4698; conditions: organism code PP; BHI agar, 35-37° C., 20 to 24 hours; unit assumed
Summary of the method: (§2)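 Antibacterial MIC determined by agar dilution in BHI agar with twelve successive concentrations; controls comprised compound-free plates and a same-class reference antibiotic. MIC: lowest concentration giving no growth, slight haze or sparsely isolated colonies.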

[4] = tested on: Micrococcus luteus ATCC 9341; conditions: organism code OO; BHI agar, 35-37° C., 20 to 24 hours; unit assumed
Summary of the method: as §2

[5] = tested on: Mycobacterium smegmatis ATCC 114; conditions: organism code UU; BHI agar, 35-37° C., 20 to 24 hours; unit assumed
Summary of the method: as §1

[6] = tested on: Nocardia Asteroides ATCC9970; conditions: organism code VV; BHI agar, 35-37° C., 20 to 24 hours; unit assumed
Summary of the method: as §1

[7] = tested on: Staphylococcus aureus 1775; conditions: organism code GG; BHI agar, 35-37° C., 20 to 24 hours; unit assumed
Summary of the method: as §1

[8] = tested on: Staphylococcus aureus A-5278; conditions: organism code CC; BHI agar, 35-37° C., 20 to 24 hours; unit assumed
Summary of the method: as §1

[9] = tested on: Staphylococcus aureus A5177; conditions: organism code BB; BHI agar, 35-37° C., 20 to 24 hours; unit assumed
Summary of the method: as §1

[10] = tested on: Staphylococcus aureus ATCC 6538P; conditions: organism code AA; BHI agar, 35-37° C., 20 to 24 hours; unit assumed
Summary of the method: as §1

[11] = tested on: Staphylococcus aureus CMX 553; conditions: organism code FF; BHI agar, 35-37° C., 20 to 24 hours; unit assumed
Summary of the method: as §1

[12] = tested on: Staphylococcus aureus CMX 642A; conditions: organism code DD; BHI agar, 35-37° C., 20 to 24 hours; unit assumed
Summary of the method: as §1

[13] = tested on: Staphylococcus aureus NCTC10649M; conditions: organism code EE; BHI agar, 35-37° C., 20 to 24 hours; unit assumed
Summary of the method: as §1

[14] = tested on: Staphylococcus epidermidis 3519; conditions: organism code HH; BHI agar, 35-37° C., 20 to 24 hours; unit assumed
Summary of the method: as §1

[15] = tested on: Streptococcus Pneumonia 5649; conditions: organism code ZZA; BHI agar, 35-37° C., 20 to 24 hours; unit assumed
Summary of the method: as §1

[16] = tested on: Streptococcus Pneumonia 5979; conditions: organism code ZZ; BHI agar, 35-37° C., 20 to 24 hours; unit assumed
Summary of the method: as §1

[17] = tested on: Streptococcus Pneumonia ATCC6303; conditions: organism code XX; BHI agar, 35-37° C., 20 to 24 hours; unit assumed
Summary of the method: as §1

[18] = tested on: Streptococcus Pneumonia GYR 1171; conditions: organism code YY; BHI agar, 35-37° C., 20 to 24 hours; unit assumed
Summary of the method: as §1

[19] = tested on: Streptococcus agalactiae CMX 508; conditions: organism code KK; BHI agar, 35-37° C., 20 to 24 hours; unit assumed
Summary of the method: as §1

[20] = tested on: Streptococcus bovis A-5169; conditions: organism code JJ; BHI agar, 35-37° C., 20 to 24 hours; unit assumed
Summary of the method: as §1

[21] = tested on: Streptococcus pyogenes 930; conditions: organism code MM; BHI agar, 35-37° C., 20 to 24 hours; unit assumed
Summary of the method: as §1

[22] = tested on: Streptococcus pyogenes EES61; conditions: organism code LL; BHI agar, 35-37° C., 20 to 24 hours; unit assumed
Summary of the method: as §1

[23] = tested on: Streptococcus pyogenes PIU 2548; conditions: organism code NN; BHI agar, 35-37° C., 20 to 24 hours; unit assumed
Summary of the method: as §1

## CC[C@H]1OC(=O)[C@H](C)C(=O)[C@H](C)[C@@H](O[C@@H]2O[C@H](C)C[C@H](N(C)C)[C@H]2O)[C@](C)(OC/C=C/c2cncc(Br)c2)C[C@@H](C)C(=O)[C@H](C)[C@H]2NC(=O)O[C@@]21C [Example 40]
Candida albicans CCH 442
  MIC: > 100 µg/mL
[1]
  MIC: 0.05 µg/mL (≈ 0.0629 µM)
Escherichia coli DC-2
  MIC: 50 µg/mL (≈ 62.9 µM)
Escherichia coli JUHL
  MIC: 100 µg/mL (≈ 126 µM)
Escherichia coli SS
  MIC: 0.39 µg/mL (≈ 0.491 µM)
[2]
  MIC: 4 µg/mL (≈ 5.03 µM)
[3]
  MIC: 0.2 µg/mL (≈ 0.252 µM)
[4]
  MIC: 0.02 µg/mL (≈ 0.0252 µM)
[5]
  MIC: 0.39 µg/mL (≈ 0.491 µM)
[6]
  MIC: 0.1 µg/mL (≈ 0.126 µM)
[7]
  MIC: > 100 µg/mL
[8]
  MIC: > 100 µg/mL
[9]
  MIC: 0.2 µg/mL (≈ 0.252 µM)
[10]
  MIC: 0.1 µg/mL (≈ 0.126 µM)
[11]
  MIC: 0.2 µg/mL (≈ 0.252 µM)
[12]
  MIC: 0.2 µg/mL (≈ 0.252 µM)
[13]
  MIC: 0.2 µg/mL (≈ 0.252 µM)
[14]
  MIC: 0.2 µg/mL (≈ 0.252 µM)
[15]
  MIC: 0.25 µg/mL (≈ 0.315 µM)
[16]
  MIC: > 128 µg/mL
[17]
  MIC: 0.015 µg/mL (≈ 0.0189 µM)
[18]
  MIC: 0.015 µg/mL (≈ 0.0189 µM)
[19]
  MIC: 0.02 µg/mL (≈ 0.0252 µM)
[20]
  MIC: 0.02 µg/mL (≈ 0.0252 µM)
[21]
  MIC: 50 µg/mL (≈ 62.9 µM)
[22]
  MIC: 0.02 µg/mL (≈ 0.0252 µM)
[23]
  MIC: 0.1 µg/mL (≈ 0.126 µM)

## CC[C@H]1OC(=O)[C@H](C)C(=O)[C@H](C)[C@@H](O[C@@H]2O[C@H](C)C[C@H](N(C)C)[C@H]2O)[C@](C)(OC/C=C/c2cncc(-c3ncccn3)c2)C[C@@H](C)C(=O)[C@H](C)[C@H]2NC(=O)O[C@@]21C [Example 46]
Candida albicans CCH 442
  MIC: > 100 µg/mL
[1]
  MIC: 0.05 µg/mL (≈ 0.063 µM)
Escherichia coli DC-2
  MIC: 100 µg/mL (≈ 126 µM)
Escherichia coli JUHL
  MIC: 50 µg/mL (≈ 63 µM)
Escherichia coli SS
  MIC: 0.39 µg/mL (≈ 0.491 µM)
[2]
  MIC: 4 µg/mL (≈ 5.04 µM)
[3]
  MIC: 0.2 µg/mL (≈ 0.252 µM)
[4]
  MIC: 0.05 µg/mL (≈ 0.063 µM)
[5]
  MIC: 6.2 µg/mL (≈ 7.81 µM)
[6]
  MIC: 0.05 µg/mL (≈ 0.063 µM)
[7]
  MIC: > 100 µg/mL
[8]
  MIC: > 100 µg/mL
[9]
  MIC: 0.2 µg/mL (≈ 0.252 µM)
[10]
  MIC: 0.1 µg/mL (≈ 0.126 µM)
[11]
  MIC: 0.2 µg/mL (≈ 0.252 µM)
[12]
  MIC: 0.2 µg/mL (≈ 0.252 µM)
[13]
  MIC: 0.2 µg/mL (≈ 0.252 µM)
[14]
  MIC: 0.1 µg/mL (≈ 0.126 µM)
[15]
  MIC: 0.5 µg/mL (≈ 0.63 µM)
[16]
  MIC: 128 µg/mL (≈ 161 µM)
[17]
  MIC: 0.03 µg/mL (≈ 0.0378 µM)
[18]
  MIC: 0.03 µg/mL (≈ 0.0378 µM)
[19]
  MIC: 0.02 µg/mL (≈ 0.0252 µM)
[20]
  MIC: 0.01 µg/mL (≈ 0.0126 µM)
[21]
  MIC: 12.5 µg/mL (≈ 15.7 µM)
[22]
  MIC: 0.02 µg/mL (≈ 0.0252 µM)
[23]
  MIC: 0.2 µg/mL (≈ 0.252 µM)

## CC[C@H]1OC(=O)[C@H](C)C(=O)[C@H](C)[C@@H](O[C@@H]2O[C@H](C)C[C@H](N(C)C)[C@H]2O)[C@](C)(OC/C=C/c2cncc(-c3ccco3)c2)C[C@@H](C)C(=O)[C@H](C)[C@H]2NC(=O)O[C@@]21C [Example 50]
Candida albicans CCH 442
  MIC: > 100 µg/mL
[1]
  MIC: 0.05 µg/mL (≈ 0.0639 µM)
Escherichia coli DC-2
  MIC: 50 µg/mL (≈ 63.9 µM)
Escherichia coli JUHL
  MIC: 25 µg/mL (≈ 32 µM)
Escherichia coli SS
  MIC: 0.39 µg/mL (≈ 0.499 µM)
[2]
  MIC: 2 µg/mL (≈ 2.56 µM)
[3]
  MIC: 0.1 µg/mL (≈ 0.128 µM)
[4]
  MIC: 0.01 µg/mL (≈ 0.0128 µM)
[5]
  MIC: 0.39 µg/mL (≈ 0.499 µM)
[6]
  MIC: 0.05 µg/mL (≈ 0.0639 µM)
[7]
  MIC: > 100 µg/mL
[8]
  MIC: > 100 µg/mL
[9]
  MIC: 0.02 µg/mL (≈ 0.0256 µM)
[10]
  MIC: 0.05 µg/mL (≈ 0.0639 µM)
[11]
  MIC: 0.02 µg/mL (≈ 0.0256 µM)
[12]
  MIC: 0.05 µg/mL (≈ 0.0639 µM)
[13]
  MIC: 0.1 µg/mL (≈ 0.128 µM)
[14]
  MIC: 0.05 µg/mL (≈ 0.0639 µM)
[15]
  MIC: 0.12 µg/mL (≈ 0.153 µM)
[16]
  MIC: 128 µg/mL (≈ 164 µM)
[17]
  MIC: ≤ 0.004 µg/mL
[18]
  MIC: ≤ 0.004 µg/mL
[19]
  MIC: 0.01 µg/mL (≈ 0.0128 µM)
[20]
  MIC: 0.01 µg/mL (≈ 0.0128 µM)
[21]
  MIC: 12.5 µg/mL (≈ 16 µM)
[22]
  MIC: 0.02 µg/mL (≈ 0.0256 µM)
[23]
  MIC: 0.1 µg/mL (≈ 0.128 µM)
